Laboratory results as given in PubChem BioAssay AID1963873 (Molecular Pharmacology Branch, DTP, NCI, 2024).
Activity calls are given as the source filed them. The calls were made as follows: active = viability on the fitted dose curve at most 10% of control; inactive = the rest.

System: 276233-004-R-J1-PDC KRAS spheroids with HUVEC/MSC, viability
Test: Anticancer human tumor 276233-004-R-J1-PDC patient-derived colon adenocarcinoma cell line growth inhibition [KRAS2]
Conditions: for IC50: curve of first compound; for viability, T/C: stronger effect = lower value
Procedure, shortened: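 KRAS-mutant tumor cells were grown as spheroids with HUVEC endothelial cells and human MSCs as stroma. Targeted agents were tested alone and with KRAS pathway inhibitors. Doses started at or near clinical Cmax, or 10 microM, descending half-log.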

[1] = second compound 0.1 µM, first compound 0.000316 µM
[2] = second compound 0.1 µM, first compound 0.001 µM
[3] = second compound 0.1 µM, first compound 0.00316 µM
[4] = second compound 0.1 µM, first compound 0.01 µM
[5] = second compound 0.1 µM, first compound 0.0316 µM
[6] = second compound 0.316 µM, first compound 0.000316 µM
[7] = second compound 0.316 µM, first compound 0.001 µM
[8] = second compound 0.316 µM, first compound 0.00316 µM
[9] = second compound 0.316 µM, first compound 0.01 µM
[10] = second compound 0.316 µM, first compound 0.0316 µM
[11] = second compound 1 µM, first compound 0.000316 µM
[12] = second compound 1 µM, first compound 0.001 µM
[13] = second compound 1 µM, first compound 0.00316 µM
[14] = second compound 1 µM, first compound 0.01 µM
[15] = second compound 1 µM, first compound 0.0316 µM
[16] = second compound 3.16 µM, first compound 0.000316 µM
[17] = second compound 3.16 µM, first compound 0.001 µM
[18] = second compound 3.16 µM, first compound 0.00316 µM
[19] = second compound 3.16 µM, first compound 0.01 µM
[20] = second compound 3.16 µM, first compound 0.0316 µM
[21] = second compound 10 µM, first compound 0.000316 µM
[22] = second compound 10 µM, first compound 0.001 µM
[23] = second compound 10 µM, first compound 0.00316 µM
[24] = second compound 10 µM, first compound 0.01 µM
[25] = second compound 10 µM, first compound 0.0316 µM
[26] = second compound 0.1 µM, first compound 0.1 µM
[27] = second compound 0.316 µM, first compound 0.1 µM
[28] = second compound 1 µM, first compound 0.1 µM
[29] = second compound 3.16 µM, first compound 0.1 µM
[30] = second compound 10 µM, first compound 0.1 µM
[31] = second compound 0.1 µM, first compound 0.316 µM
[32] = second compound 0.1 µM, first compound 1 µM
[33] = second compound 0.1 µM, first compound 3.16 µM
[34] = second compound 0.1 µM, first compound 10 µM
[35] = second compound 0.316 µM, first compound 0.316 µM
[36] = second compound 0.316 µM, first compound 1 µM
[37] = second compound 0.316 µM, first compound 3.16 µM
[38] = second compound 0.316 µM, first compound 10 µM
[39] = second compound 1 µM, first compound 0.316 µM
[40] = second compound 1 µM, first compound 1 µM
[41] = second compound 1 µM, first compound 3.16 µM
[42] = second compound 1 µM, first compound 10 µM
[43] = second compound 3.16 µM, first compound 0.316 µM
[44] = second compound 3.16 µM, first compound 1 µM
[45] = second compound 3.16 µM, first compound 3.16 µM
[46] = second compound 3.16 µM, first compound 10 µM
[47] = second compound 10 µM, first compound 0.316 µM
[48] = second compound 10 µM, first compound 1 µM
[49] = second compound 10 µM, first compound 3.16 µM
[50] = second compound 10 µM, first compound 10 µM
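For IC50 in this document: cells exposed to agents for seven days before viability read.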
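For viability, T/C in this document: cells exposed to agents for seven days before viability read; 100% = DMSO vehicle control wells and lower values mean fewer viable cells.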

Compound: CC(=O)Nc1cccc(-n2c(=O)n(C3CC3)c(=O)c3c(Nc4ccc(I)cc4F)n(C)c(=O)c(C)c32)c1 + CC1OCC2(CCN(c3cnc(Sc4ccnc(N)c4Cl)c(N)n3)CC2)C1N
- IC50 (second compound 0.1 µM): 4.28 nM
- IC50 (second compound 0.316 µM): 2.46 nM
- IC50 (second compound 1 µM): 0.405 nM
- IC50 (second compound 3.16 µM): < 0.1 nM
- IC50 (second compound 10 µM): < 0.1 nM
- viability, T/C (second compound 0.1 µM, first compound 0.0001 µM): 78.4%
- viability, T/C [1]: 87.2%
- viability, T/C [2]: 65.8%
- viability, T/C [3]: 55.5%
- viability, T/C [4]: 35.6%
- viability, T/C [5]: 13.1%
- viability, T/C (second compound 0.316 µM, first compound 0.0001 µM): 67%
- viability, T/C [6]: 74.1%
- viability, T/C [7]: 61%
- viability, T/C [8]: 45.5%
- viability, T/C [9]: 28%
- viability, T/C [10]: 13.5%
- viability, T/C (second compound 1 µM, first compound 0.0001 µM): 57.4%
- viability, T/C [11]: 55.4%
- viability, T/C [12]: 42.6%
- viability, T/C [13]: 28.4%
- viability, T/C [14]: 27.4%
- viability, T/C [15]: 7.28%
- viability, T/C (second compound 3.16 µM, first compound 0.0001 µM): 39.7%
- viability, T/C [16]: 31.9%
- viability, T/C [17]: 23.3%
- viability, T/C [18]: 12.7%
- viability, T/C [19]: 9.04%
- viability, T/C [20]: 5.79%
- viability, T/C (second compound 10 µM, first compound 0.0001 µM): 31.4%
- viability, T/C [21]: 23.7%
- viability, T/C [22]: 14.7%
- viability, T/C [23]: 10.9%
- viability, T/C [24]: 17.6%
- viability, T/C [25]: 8.53%

Compound: CN(C)C/C=C/C(=O)Nc1cc2c(Nc3ccc(F)c(Cl)c3)ncnc2cc1O[C@H]1CCOC1 + CC1OCC2(CCN(c3cnc(Sc4ccnc(N)c4Cl)c(N)n3)CC2)C1N
- IC50 (second compound 0.1 µM): > 100 nM
- IC50 (second compound 0.316 µM): > 100 nM
- IC50 (second compound 1 µM): > 100 nM
- IC50 (second compound 3.16 µM): 83.3 nM
- IC50 (second compound 10 µM): > 100 nM
- viability, T/C [1]: 95.9%
- viability, T/C [2]: 96.1%
- viability, T/C [3]: 92.4%
- viability, T/C [4]: 71.3%
- viability, T/C [5]: 80.1%
- viability, T/C [26]: 81.6%
- viability, T/C [6]: 80.7%
- viability, T/C [7]: 76.6%
- viability, T/C [8]: 94.3%
- viability, T/C [9]: 81.1%
- viability, T/C [10]: 75.5%
- viability, T/C [27]: 78.1%
- viability, T/C [11]: 93.2%
- viability, T/C [12]: 95.5%
- viability, T/C [13]: 104%
- viability, T/C [14]: 97.9%
- viability, T/C [15]: 104%
- viability, T/C [28]: 79.5%
- viability, T/C [16]: 56.4%
- viability, T/C [17]: 53%
- viability, T/C [18]: 48.7%
- viability, T/C [19]: 51.1%
- viability, T/C [20]: 54.5%
- viability, T/C [29]: 48.8%
- outcome [21]: inactive
- outcome [22]: inactive
- viability, T/C [23]: 52.6%
- outcome [24]: inactive
- viability, T/C [25]: 50.9%
- viability, T/C [30]: 55.4%

Compound: COC(=O)c1ccc2c(C(=Nc3ccc(N(C)C(=O)CN4CCN(C)CC4)cc3)c3ccccc3)c(O)[nH]c2c1 + CC1OCC2(CCN(c3cnc(Sc4ccnc(N)c4Cl)c(N)n3)CC2)C1N
- IC50 (second compound 0.1 µM): > 10000 nM
- IC50 (second compound 0.316 µM): > 10000 nM
- IC50 (second compound 1 µM): 1180 nM
- IC50 (second compound 3.16 µM): 33.2 nM
- IC50 (second compound 10 µM): < 31.6 nM
- viability, T/C [5]: 87.3%
- viability, T/C [26]: 73.7%
- viability, T/C [31]: 68.5%
- viability, T/C [32]: 64.6%
- viability, T/C [33]: 65.6%
- viability, T/C [34]: 56.2%
- viability, T/C [10]: 80%
- viability, T/C [27]: 63.8%
- viability, T/C [35]: 59.2%
- viability, T/C [36]: 64.7%
- viability, T/C [37]: 46.1%
- viability, T/C [38]: 70.7%
- viability, T/C [15]: 67.8%
- viability, T/C [28]: 61.1%
- viability, T/C [39]: 54.3%
- viability, T/C [40]: 55.1%
- viability, T/C [41]: 42.3%
- viability, T/C [42]: 42.1%
- viability, T/C [20]: 49.8%
- viability, T/C [29]: 47.6%
- viability, T/C [43]: 40.6%
- viability, T/C [44]: 41.1%
- viability, T/C [45]: 40%
- viability, T/C [46]: 37.3%
- viability, T/C [25]: 44.9%
- viability, T/C [30]: 49.5%
- viability, T/C [47]: 42.6%
- viability, T/C [48]: 48%
- viability, T/C [49]: 36.3%
- viability, T/C [50]: 37.9%

Compound: O=C(c1cc(Cc2n[nH]c(=O)c3ccccc23)ccc1F)N1CCN(C(=O)C2CC2)CC1 + CC1OCC2(CCN(c3cnc(Sc4ccnc(N)c4Cl)c(N)n3)CC2)C1N
- IC50 (second compound 0.1 µM): > 10000 nM
- IC50 (second compound 0.316 µM): > 10000 nM
- IC50 (second compound 1 µM): > 10000 nM
- IC50 (second compound 3.16 µM): 233 nM
- IC50 (second compound 10 µM): 70.7 nM
- viability, T/C [5]: 75.3%
- viability, T/C [26]: 84.9%
- viability, T/C [31]: 85.4%
- viability, T/C [32]: 81.8%
- viability, T/C [33]: 79.4%
- viability, T/C [34]: 62.5%
- viability, T/C [10]: 76.6%
- viability, T/C [27]: 78.5%
- viability, T/C [35]: 65.7%
- viability, T/C [36]: 71.7%
- viability, T/C [37]: 64.9%
- viability, T/C [38]: 65%
- viability, T/C [15]: 95.6%
- viability, T/C [28]: 67.9%
- viability, T/C [39]: 59.4%
- viability, T/C [40]: 54.2%
- viability, T/C [41]: 51%
- viability, T/C [42]: 52.9%
- viability, T/C [20]: 54.4%
- viability, T/C [29]: 52.8%
- viability, T/C [43]: 45.1%
- viability, T/C [44]: 50.6%
- viability, T/C [45]: 44.4%
- viability, T/C [46]: 43.3%
- viability, T/C [25]: 55.9%
- viability, T/C [30]: 47.1%
- viability, T/C [47]: 41.4%
- viability, T/C [48]: 42.7%
- viability, T/C [49]: 37.5%
- viability, T/C [50]: 36.6%
